Measured values reported in article PMC11249646, “Small-Molecule Disruptors of the Interaction between Calcium- and Integrin-Binding Protein 1 and Integrin αIIbβ3 as Novel Antiplatelet Agents” (ACS Pharmacology & Translational Science, 2024).
Like-named read-outs stand apart in the source and are kept apart here.

Tests used:
[1] = molecular target: T1, CIB1 and αIIb interaction (CIB1-GST : F-αIIb peptide) (Homo sapiens, UniProt Q99828); assay: FP assay, 1536-well qHTS format (primary and confirmatory screen); type: binding; details: for Curve Class (confirmatory screen) / CONFIRMATORY SCREEN Curve Class: qHTS curve class
T1 construct: made in house; host or cells: BL-21 plus RIL cells (E. coli)
T1 sequence (Q99828 1-191): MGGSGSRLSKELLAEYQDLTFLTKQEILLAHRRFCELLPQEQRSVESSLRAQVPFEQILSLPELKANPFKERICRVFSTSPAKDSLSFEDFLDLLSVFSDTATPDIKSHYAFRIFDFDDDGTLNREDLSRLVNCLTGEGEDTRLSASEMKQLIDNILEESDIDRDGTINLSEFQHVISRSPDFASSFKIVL

[2] = molecular target: T2, GST-CIB1 : F-scrambled peptide (Homo sapiens, UniProt Q99828); assay: FP scrambled-peptide counter screen, 1536-well format; type: binding; details: for Curve Class (counterscreen) / COUNTERSCREEN Curve Class: qHTS curve class
T2 construct: made in house; host or cells: BL-21 plus RIL cells (E. coli)
T2 sequence (Q99828 1-191): T1 sequence (Q99828 1-191)

[3] = Table S3, confirmatory screen, a negative sign marks inhibitory curves
[4] = Table S3, confirmatory screen, negative = inhibition
[5] = qHTS FP screen hits, Table S2, negative = inhibition
[6] = qHTS FP screen hits, Table S2, read-out: IC50
[7] = Table S3, counterscreen, YES/NO call
[8] = Table S3, counterscreen, a negative sign marks inhibitory curves
[9] = Table S3, counterscreen, negative = inhibition
[10] = Table S3, counterscreen, read-out: IC50 [μM] (counterscreen)
[11] = confirmatory screen, negative sign = inhibitory curve
[12] = scrambled-peptide counterscreen
[13] = qHTS primary screen hits, Table S2, negative = inhibition
[14] = qHTS primary screen hits, Table S2, negative sign = inhibitory curve, several classes where COUNT > 1
[15] = qHTS primary screen hits, Table S2, read-out: IC50
[16] = Table S3, confirmatory screen, YES/NO call
[17] = Table S3, confirmatory screen, read-out: IC50 [μM] (confirmatory screen)
[18] = counterscreen, negative sign = inhibitory curve
[19] = counterscreen, read-out: IC50 [μM] (counterscreen)

Row | SMILES | Curve Class (confirmatory screen) [1, 3] | Efficacy (%) (confirmatory screen) [1, 4] | Curve Class (counterscreen) [2, 8] | Efficacy (%) (counterscreen) [2, 9] | IC50 [2, 10] [µM] | Efficacy (%) [1, 13] [%] | Curve Class [1, 14] | IC50 [1, 15] [µM] | other results
1 | O=C(O)C(F)(F)F.O=C1Nc2ccccc2/C1=N/NC(=S)Nc1ccc(C(=O)O)cc1 [NCGC00229530-01] | 4 | -47 | -1.2 | -65 | 12.6 |  |  |  | Efficacy (%) [1, 5]: -32%; IC50 [1, 6]: 8.9 µM; Confirm? (counterscreen) [2, 7]: YES
2 | CC(C)NC(=S)N/N=C1\C(=O)Nc2ccccc21.O=C(O)C(F)(F)F [NCGC00229535-01] |  |  |  |  |  |  |  |  | CONFIRMATORY SCREEN Confirm? ([1]; confirmatory screen, YES/NO call): YES; CONFIRMATORY SCREEN Curve Class [1, 11]: -1.4; CONFIRMATORY SCREEN Efficacy (%) ([1]; confirmatory screen, negative = inhibition): -48%; IC50 ([1]; confirmatory screen, read-out: CONFIRMATORY SCREEN IC50): 2.8 µM; Efficacy (%) [1, 5]: -24%; IC50 [1, 6]: 12.6 µM; COUNTERSCREEN Efficacy (%) [2, 12]: -45%; COUNTERSCREEN Confirm? ([2]; scrambled-peptide counterscreen, YES/NO call): YES; COUNTERSCREEN Curve Class [2, 12]: -1.2; IC50 ([2]; scrambled-peptide counterscreen, read-out: COUNTERSCREEN IC50): 11.2 µM
3 | O=C(O)C(F)(F)F.O=C1Nc2ccccc2/C1=N/NC(=S)Nc1c(F)cc(F)cc1F [NCGC00229537-01] |  |  |  |  |  | -30 | -1.4 | 12.6 | CONFIRMATORY SCREEN Efficacy (%) ([1]; confirmatory screen): -26%; CONFIRMATORY SCREEN Curve Class ([1]; confirmatory screen): 4; COUNTERSCREEN Efficacy (%) ([2]; counterscreen): -11%; COUNTERSCREEN Curve Class ([2]; counterscreen): 4
4 | CCCCNC(=S)N/N=C1\C(=O)Nc2ccccc21.O=C(O)C(F)(F)F [NCGC00229539-01] | -2.4 | -49 | -1.2 | -50 | 11.2 | -32 | -1.2 | 17.8 | Confirm? (confirmatory screen) [1, 16]: YES; IC50 [1, 17]: 50.1 µM
5 | O=C(O)C(F)(F)F.O=C1Nc2ccccc2/C1=N/NC(=S)Nc1ccccc1 [NCGC00229542-01] |  |  |  |  |  | -27 | -1.4 | 10 | Efficacy (%) (confirmatory screen) ([1]; confirmatory screen): -50%; Confirm? (confirmatory screen) ([1]; confirmatory screen, YES/NO): YES; Curve Class (confirmatory screen) [1, 11]: -1.4; IC50 ([1]; confirmatory screen, read-out: IC50 [μM] (confirmatory screen)): 3.2 µM; Efficacy (%) (counterscreen) ([2]; counterscreen): -34%; Curve Class (counterscreen) [2, 18]: -1.2; IC50 [2, 19]: 4.5 µM
6 | O=C(O)C(F)(F)F.O=C1Nc2ccccc2/C1=N/NC(=S)NCc1ccccc1 [NCGC00229543-01] | 4 | -33 | 4 | -27 |  | -24 | -1.4 | 7.9 | 
7 | O=C(O)C(F)(F)F.O=C(O)c1ccc(-c2ccc3ncnc(N4CCOCC4)c3c2)o1 [NCGC00229619-01] | -1.4 | -29 | -2.4 | -53 | 5.6 | -16 | -1.4 | 4 | Confirm? (confirmatory screen) [1, 16]: YES; IC50 [1, 17]: 10 µM
8 | CN(CC(=O)Nc1ccc(N2CCOCC2)cc1)Cc1c(O)ccc2ccccc12.O=C(O)C(F)(F)F [NCGC00229682-01] | 4 | -47 | -2.2 | -57 | 70.8 | -68 | -2.2 | 39.8 | Confirm? (counterscreen) [2, 7]: YES
9 | O=C(O)C(F)(F)F.O=C1CCCC2=C1C(c1ccn[nH]1)N=C(Nc1nc3ccccc3o1)N2 (stereo not drawn) [NCGC00229725-01] | 4 | -29 | 4 | -32 |  | -32 |  | 25.1 | Curve Class ([1]; qHTS primary screen hits, Table S2, negative sign = inhibitory curve): -2.2
10 | CCNC(=O)c1ccc(-c2ccc3ncnc(N4CCOCC4)c3c2)o1.O=C(O)C(F)(F)F [NCGC00238377-01] |  |  |  |  |  | -23 | -2.4 | 28.2 | Efficacy (%) (confirmatory screen) ([1]; confirmatory screen): -45%; Confirm? (confirmatory screen) ([1]; confirmatory screen, YES/NO): YES; Curve Class (confirmatory screen) [1, 11]: -1.4; Efficacy (%) (counterscreen) ([2]; counterscreen): -38%; Curve Class (counterscreen) [2, 18]: -2.2; IC50 [2, 19]: 44.7 µM
11 | CC(O)c1ccc(-c2ccc3ncnc(N4CCOCC4)c3c2)o1.O=C(O)C(F)(F)F (stereo not drawn) [NCGC00238381-02] |  |  |  |  |  |  |  |  | CONFIRMATORY SCREEN Efficacy (%) ([1]; confirmatory screen): -26%; CONFIRMATORY SCREEN Curve Class ([1]; confirmatory screen): 4; Efficacy (%) [1, 5]: -19%; IC50 [1, 6]: 14.1 µM; COUNTERSCREEN Efficacy (%) ([2]; counterscreen): -14%; COUNTERSCREEN Curve Class ([2]; counterscreen): 4
